Assay results taken from patent US8101576B2, “Compounds and their effects on feeding behaviour” (priority 2006, dated 2012).
Square brackets hold non-standard residues; d marks the D form. Ends that are not written are not given here. * marks the point of attachment. Arachidoyl = CCCCCCCCCCCCCCCCCCCC(=O)*; Palmitoyl = CCCCCCCCCCCCCCCC(=O)*; Myristoyl = CCCCCCCCCCCCCC(=O)*

Experiments:
[1] = Inhibition of food intake, intraperitoneal injection to fasted mice; assay type: in vivo, C57BL/6 mice
Method: (§1) Animals: All animal procedures were approved by the British Home Office Animals (Scientific Procedures) Act 1986 (Project License number 70/5516).
(§2) Study protocol: C57BL/6 mice (20-35 g) were injected with the peptide under investigation following a 20-hour fast. Wistar rats were injected following a 24-hour fast. […] A pre-weighed quantity of chow was presented immediately after injection.

[2] = Inhibition of food intake, subcutaneous injection to fasted rats; assay type: in vivo, Wistar rats
Method: as §1, §2

Substance: D-His Ser Gln Gly Thr Phe Thr Ser Asp Tyr Ser Lys Tyr Leu Glu Glu Glu Leu Val Lys Tyr Phe Leu Gln Trp Leu Lys Asn Ala Gly Pro Ser Lys Asn Asn Ile Ala Glu Ala Lys ([dH]SQGTFTSDYSKYLEEELVKYFLQWLKNAGPSKNNIAEAK) [PEPTIDE NO: 210]
- Mean cumulative food intake in comparison to saline control ([1]; 20 nmoles/kg, over 48 hours): potent and long acting suppression of food intake
- food intake in comparison to control group treated with native oxyntomodulin ([1]; 20 nmoles/kg, over 48 hours): lower than in the control group treated with native oxyntomodulin

Substance: HSQGTFTSDYSKYLEEELVKYFLQWLKNAGPSKNNIA [PEPTIDE NO: 4]
- Mean cumulative food intake in comparison to saline control ([1]; 5 nmoles/kg, over 24 hours): potent and long acting suppression of food intake
- food intake in comparison to control group treated with native oxyntomodulin ([1]; 5 nmoles/kg, over 24 hours): lower than in the control group treated with native oxyntomodulin

Substance: D-His Ser Gln Gly Thr Phe Thr Ser Asp Tyr Ser Lys Tyr Leu Glu Glu Glu Leu Val Lys Tyr Phe Leu Gln Trp Leu Lys Asn Ala Gly Pro Ser Lys Asn Asn Ile Ala Glu Ala Lys-myristoyl ([dH]SQGTFTSDYSKYLEEELVKYFLQWLKNAGPSKNNIAEAK(Myristoyl)) [PEPTIDE NO: 211]
- Mean cumulative food intake in comparison to saline control ([1]; 200 nmoles/kg, over 48 hours): potent and long acting suppression of food intake
- food intake in comparison to control group treated with native oxyntomodulin ([1]; 200 nmoles/kg, over 48 hours): lower than in the control group treated with native oxyntomodulin

Substance: D-His Ser Gln Gly Thr Phe Thr Ser Asp Tyr Ser Lys Tyr Leu Glu Glu Glu Leu Val Lys Tyr Phe Leu Gln Trp Leu Lys Asn Ala Gly Pro Ser Lys Asn Asn Ile Ala Glu Ala Lys-arachidoyl ([dH]SQGTFTSDYSKYLEEELVKYFLQWLKNAGPSKNNIAEAK(Arachidoyl)) [PEPTIDE NO: 214]
- Mean cumulative food intake in comparison to saline control ([1]; 400 nmoles/kg, over 48 hours): potent and long acting suppression of food intake
- food intake in comparison to control group treated with native oxyntomodulin ([1]; 400 nmoles/kg, over 48 hours): lower than in the control group treated with native oxyntomodulin

Substance: D-His Ala Gln Gly Thr Phe Thr Ser Asp Tyr Ser Lys Tyr Leu Glu Gln Glu Ile Val Lys Tyr Phe Leu Gln Trp Leu Lys Asn Ala Gly Pro Ser Lys Asn Asn Ile Ala ([dH]AQGTFTSDYSKYLEQEIVKYFLQWLKNAGPSKNNIA) [PEPTIDE NO: 136]
- Mean cumulative food intake in comparison to saline control ([1]; 5 nmoles/kg, over 24 hours): potent and long acting suppression of food intake
- food intake in comparison to control group treated with native oxyntomodulin ([1]; 5 nmoles/kg, over 24 hours): lower than in the control group treated with native oxyntomodulin

Substance: D-His Ala Asp Gly Thr Phe Thr Ser Asp Tyr Ser Lys Tyr Leu Glu Gln Glu Leu Val Lys Tyr Phe Ile Gln Trp Leu Lys Asn Ala Gly Pro Ser Lys Asn Asn Ile Ala ([dH]ADGTFTSDYSKYLEQELVKYFIQWLKNAGPSKNNIA) [PEPTIDE NO: 178]
- Mean cumulative food intake in comparison to saline control ([2]; 10 nmoles/kg, over 24 hours): potent and long acting suppression of food intake
- food intake in comparison to control group treated with native oxyntomodulin ([2]; 10 nmoles/kg, over 24 hours): lower than in the control group treated with native oxyntomodulin

Substance: D-His Ala Asp Gly Thr Phe Thr Ser Asp Tyr Ser Lys Tyr Leu Glu Gln Glu Ile Val Lys Tyr Phe Leu Gln Trp Leu Lys Asn Ala Gly Pro Ser Lys Asn Asn Ile Ala ([dH]ADGTFTSDYSKYLEQEIVKYFLQWLKNAGPSKNNIA) [PEPTIDE NO: 184]
- Mean cumulative food intake in comparison to saline control ([2]; 3 nmoles/kg, over 24 hours): potent and long acting suppression of food intake
- food intake in comparison to control group treated with native oxyntomodulin ([2]; 3 nmoles/kg, over 24 hours): lower than in the control group treated with native oxyntomodulin

Substance: D-His Ala Asp Gly Thr Phe Thr Ser Asp Tyr Ser Lys Tyr Leu Glu Glu Glu Leu Val Lys Tyr Phe Ile Glu Trp Leu Met Asn Thr Lys Arg Asn Lys Asn Asn Ile Ala ([dH]ADGTFTSDYSKYLEEELVKYFIEWLMNTKRNKNNIA) [PEPTIDE NO: 153]
- Mean cumulative food intake in comparison to saline control ([2]; 200 mmoles/kg, over 24 hours): potent and long acting suppression of food intake
- food intake in comparison to control group treated with native oxyntomodulin ([2]; 200 mmoles/kg, over 24 hours): lower than in the control group treated with native oxyntomodulin

Substance: D-His Ala Asp Gly Thr Phe Thr Ser Asp Tyr Ser Lys Tyr Leu Glu Glu Glu Leu Val Lys Tyr Phe Ile Gln Trp Leu Lys Asn Gly Gly Pro Ser Lys Asn Asn Ile Ala Ala Ala Lys-arachidoyl ([dH]ADGTFTSDYSKYLEEELVKYFIQWLKNGGPSKNNIAAAK(Arachidoyl)) [PEPTIDE NO: 209]
- food intake in comparison to control group treated with native oxyntomodulin ([2]; 80 mmoles/kg, over 48 hours): lower than in the control group treated with native oxyntomodulin
- Mean cumulative food intake in comparison to saline control ([2]; over 48 hours): potent and long acting suppression of food intake

Substance: D-His Ala Asp Gly Thr Phe Thr Ser Asp Tyr Ser Lys Tyr Leu Glu Glu Glu Ile Val Lys Tyr Phe Ile Gln Trp Leu Lys Asn Gly Gly Pro Ser Lys Asn Asn Ile Ala Lys ([dH]ADGTFTSDYSKYLEEEIVKYFIQWLKNGGPSKNNIAK) [PEPTIDE NO: 201]
- Mean cumulative food intake in comparison to saline control ([2]; 5 nmoles/kg, over 48 hours): potent and long acting suppression of food intake
- food intake in comparison to control group treated with native oxyntomodulin ([2]; 5 nmoles/kg, over 48 hours): lower than in the control group treated with native oxyntomodulin

Substance: D-His Ser Gln Gly Thr Phe Thr Ser Asp Tyr Ser Lys Tyr Leu Glu Glu Glu Leu Val Lys Tyr Phe Leu Gln Trp Leu Lys Asn Ala Gly Pro Ser Lys Asn Asn Ile Ala ([dH]SQGTFTSDYSKYLEEELVKYFLQWLKNAGPSKNNIA) [PEPTIDE NO: 52]
- Mean cumulative food intake in comparison to saline control ([2]; 10 nmoles/kg, over 24 hours): potent and long acting suppression of food intake
- food intake in comparison to control group treated with native oxyntomodulin ([2]; 10 nmoles/kg, over 24 hours): lower than in the control group treated with native oxyntomodulin

Substance: [dH]ADGWFWSDYSKYLDSRRAQDFVQWLKNAGPSKNNIA [PEPTIDE NO: 199]
- Mean cumulative food intake in comparison to saline control ([2]; 500 nmoles/kg, over 24 hours): potent and long acting suppression of food intake
- food intake in comparison to control group treated with native oxyntomodulin ([2]; 500 nmoles/kg, over 24 hours): lower than in the control group treated with native oxyntomodulin

Substance: D-His Ala Gln Gly Thr Phe Thr Ser Asp Tyr Ser Lys Tyr Leu glu Glu Glu Leu Val Lys Tyr Phe Ile Gln Trp Leu Met Asn Thr Lys Arg Asn Lys Asn Asn Ile Ala ([dH]AQGTFTSDYSKYLEEELVKYFIQWLMNTKRNKNNIA; not fully specified (residue 15)) [PEPTIDE NO: 108]
- Mean cumulative food intake in comparison to saline control ([1]; 100 nmoles/kg, over 24 hours): potent and long acting suppression of food intake
- food intake in comparison to control group treated with native oxyntomodulin ([1]; 100 nmoles/kg, over 24 hours): lower than in the control group treated with native oxyntomodulin

Substance: D-His Ser Gln Gly Thr Phe Thr Ser Asp Tyr Ser Lys Tyr Leu Glu Glu Glu Leu Val Lys Tyr Phe Leu Gln Trp Leu Lys Asn Ala Gly Pro Ser Lys Asn Asn Ile Ala Glu Ala Lys-palmitoyl ([dH]SQGTFTSDYSKYLEEELVKYFLQWLKNAGPSKNNIAEAK(Palmitoyl)) [PEPTIDE NO: 213]
- Mean cumulative food intake in comparison to saline control ([1]; 400 nmoles/kg, over 48 hours): potent and long acting suppression of food intake
- food intake in comparison to control group treated with native oxyntomodulin ([1]; 400 nmoles/kg, over 48 hours): lower than in the control group treated with native oxyntomodulin

Substance: D-His Ser Gln Gly Thr Phe Thr Ser Asp Tyr Ser Lys Tyr Leu Glu Gln Glu Leu Val Lys Tyr Phe Ile Gln Trp Leu Lys Asn Ala Gly Pro Ser Lys Asn Asn Ile Ala ([dH]SQGTFTSDYSKYLEQELVKYFIQWLKNAGPSKNNIA) [PEPTIDE NO: 82]
- Mean cumulative food intake in comparison to saline control ([2]; 10 nmoles/kg, over 24 hours): potent and long acting suppression of food intake
- food intake in comparison to control group treated with native oxyntomodulin ([2]; 10 nmoles/kg, over 24 hours): lower than in the control group treated with native oxyntomodulin

Substance: D-His Ser Gln Gly Thr Phe Thr Ser Asp Tyr Ser Lys Tyr Leu Asp Ser Arg Arg Ala Gln Asp Phe Val Gln Trp Leu Lys Asn Ala Gly Pro Ser Lys Asn Asn Ile Ala ([dH]SQGTFTSDYSKYLDSRRAQDFVQWLKNAGPSKNNIA) [PEPTIDE NO: 195]
- Mean cumulative food intake in comparison to saline control ([1]; 800 nmoles/kg, over 24 hours): potent and long acting suppression of food intake
- food intake in comparison to control group treated with native oxyntomodulin ([1]; 800 nmoles/kg, over 24 hours): lower than in the control group treated with native oxyntomodulin
